From ChEMBL document CHEMBL1201862, “PubChem BioAssay data set” (2004)
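Interpolation was linear, between the two tested concentrations surrounding the appropriate level; five concentrations were tested over 48 hours in 96-well plates. GI50 = concentration required for 50% inhibition of growth.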 The source made the active and inactive calls. Rule as the data show it: active = GI50 up to about 1.1 µM and inactive = higher.

How the values were obtained:
Experiment in all cases: NCI-60 cell line screen, 48 h
CCRF-CEM = test system: CCRF-CEM
K562 = test system: K562
RXF 393 = test system: RXF 393
OVCAR-8 = test system: OVCAR-8
SK-MEL-5 = test system: SK-MEL-5
SF-295 = test system: SF-295
TK-10 = test system: TK-10
786-0 = test system: 786-0
SNB-75 = test system: SNB-75
A549 = test system: A549
SK-MEL-28 = test system: SK-MEL-28
T47D = test system: T47D
NCI-H522 = test system: NCI-H522
SN12C = test system: SN12C
PC-3 = test system: PC-3
MDA-MB-435 = test system: MDA-MB-435
M14 = test system: M14
U-251 = test system: U-251
DU-145 = test system: DU-145
OVCAR-3 = test system: OVCAR-3
HL-60 = test system: HL-60
UO-31 = test system: UO-31
SF-539 = test system: SF-539
MCF7 = test system: MCF7
OVCAR-5 = test system: OVCAR-5
SNB-19 = test system: SNB-19
UACC-257 = test system: UACC-257
SF-268 = test system: SF-268
SK-MEL-2 = test system: SK-MEL-2
HT-29 = test system: HT-29
IGROV-1 = test system: IGROV-1
HCC 2998 = test system: HCC 2998
MDA-MB-231 = test system: MDA-MB-231
SR = test system: SR
LOX IMVI = test system: LOX IMVI
EKVX = test system: EKVX
NCI-H23 = test system: NCI-H23
HOP-62 = test system: HOP-62
NCI-H226 = test system: NCI-H226
MDA-N = test system: MDA-N
UACC-62 = test system: UACC-62
CAKI-1 = test system: CAKI-1
SW-620 = test system: SW-620
COLO 205 = test system: COLO 205
NCI/ADR-RES = test system: NCI/ADR-RES
HOP-92 = test system: HOP-92
OVCAR-4 = test system: OVCAR-4
KM12 = test system: KM12
Hs-578T = test system: Hs-578T
HCT-15 = test system: HCT-15
RPMI-8226 = test system: RPMI-8226
MOLT-4 = test system: MOLT-4
NCI-H460 = test system: NCI-H460
ACHN = test system: ACHN
SK-OV-3 = test system: SK-OV-3
BT-549 = test system: BT-549
HCT-116 = test system: HCT-116
Malme-3M = test system: Malme-3M

Measured: GI50

CN(C)CCCc1cccc2[nH]c3c(c12)CN(C)CC3
80 µM: HCT-15
inactive: CCRF-CEM 63.2 µM | K562 76.7 µM | RXF 393 19.7 µM | OVCAR-8 > 100 µM | SK-MEL-5 > 100 µM | SF-295 > 100 µM | TK-10 > 100 µM | 786-0 92.3 µM | SNB-75 78 µM | A549 > 100 µM | SK-MEL-28 > 100 µM | T47D > 100 µM | NCI-H522 > 100 µM | SN12C > 100 µM | PC-3 67.1 µM | MDA-MB-435 > 100 µM | M14 17.3 µM | U-251 > 100 µM | DU-145 > 100 µM | OVCAR-3 > 100 µM | HL-60 56.9 µM | UO-31 > 100 µM | SF-539 28.8 µM | MCF7 > 100 µM | OVCAR-5 > 100 µM | SNB-19 > 100 µM | UACC-257 80 µM | SF-268 > 100 µM | SK-MEL-2 > 100 µM | HT-29 40.1 µM | IGROV-1 73.1 µM | HCC 2998 > 100 µM | MDA-MB-231 17.8 µM | SR 27.4 µM | LOX IMVI 30.1 µM | EKVX > 100 µM | NCI-H23 > 100 µM | HOP-62 56.5 µM | NCI-H226 > 100 µM | MDA-N > 100 µM | UACC-62 > 100 µM | CAKI-1 > 100 µM | SW-620 > 100 µM | COLO 205 63.4 µM | NCI/ADR-RES > 100 µM | HOP-92 > 100 µM | OVCAR-4 > 100 µM | KM12 > 100 µM | Hs-578T > 100 µM | RPMI-8226 > 100 µM | MOLT-4 75 µM | NCI-H460 > 100 µM | ACHN > 100 µM | SK-OV-3 > 100 µM | BT-549 81.7 µM | HCT-116 > 100 µM | Malme-3M 95.9 µM
